The values that follow come from patent US20260337177A1, “TEAD CORE INHIBITORS FOR CANCER THERAPEUTICS” (University of Florida Research Foundation, Incorporated, priority 2023, published 2026).

Assay [1] has as its system Hs578T cells. Nature of the assay: Hs578T cell growth inhibition (CCK-8, 3 days). The assay is classed as cell-based. The following applies: Homo sapiens, Hs-578T, 72 h, triple negative breast cancer, read-out: Antiproliferative IC50, Hs578T. Here is the method: (§1) The inhibitory effects of compound 22 were assessed against YAP TEAD related NF2-deficient mesothelioma cell NCI-H226 and triple negative breast cancer cell Hs578T. The growth inhibition ratio was measured using a CCK-8 assay after 3 days of treatments.

For assay [2], the system named is HB tumors. In words: Murine hepatoblastoma (HB) model, HDTV injection of S127A-YAP1 and ΔN90-β-catenin. The assay is classed as in vivo, C57BL6 mice. As to the method:
Using this model, the inhibitory effect of YAP inhibitor compound 22 on HB development was examined. In brief, following HDTV injection, the co-expression of constitutively active S127A-YAP1 and ΔN90 deletion-mutant β-catenin (ΔN90-β-catenin) via Sleeping Beauty-mediated somatic integration led to HB development in mouse livers. Plasmids carrying T3EF1α-YAPS127A (20 μg), pCMV-sleeping beauty transposase (SB, 0.8 μg), and pT3-EF1α-ΔN90-β-catenin (20 μg) were extracted using the Endotoxin-Free Maxiprep kit (Qiagen), diluted in 2 ml 0.9% sodium chloride solution, and injected via hydrodynamic tail vein injection (HDTV) into C57BL6 mice (6 week-old, body weight of 20 g). compound 22 or mock control (twice a week for three months, IP injection) were applied two weeks post the HDTV injection until two days before sacrifice. Low dose group received […] body weight and high dose group received […] body weight.
Tissues harvested from mice were fixed in 4% paraformaldehyde PBS solution for 24 hours, embedded in paraffin, and sectioned (6 μm). Standard staining protocols were performed for IHC using an ABC kit from Vector lab (Vector Laboratories, Inc., CA). The primary antibody was mouse anti-Ki67 antibody (catalogNCL-L-Ki67-MM1, 1:100 dilution) from Leica Biosystems (Deer Park, IL). Stained sections were detected using a microscope (Leica, Germany).
For drug assessment in the murine HB model, plasmids carrying T3EF1α-YAPS127A (20 μg), pCMV-sleeping beauty transposase (SB, 0.8 μg), and pT3-EF1α-ΔN90-β-catenin (20 μg) from Addgene (Watertown, MA) were used. The plasmids were extracted using the Endotoxin-Free Maxiprep kit (Qiagen, Redwood City, CA), diluted in 2 ml 0.9% sodium chloride solution, and injected via hydrodynamic tail vein injection (HDTV) into C57BL6 mice (n=15, 6 week old). Three weeks post the HDTV injection, compound 22 ([…] body weight) or mock control were applied twice a week for total 9 weeks via IP injection. Two days post last drug treatment, mice were euthanized and tumor tissues were subjected to molecular and histological characterizations.

The subject of assay [3] is YAP-TEAD. In words: Co-immunoprecipitation of endogenous YAP and TEAD in NCI-H226 cells. The assay is classed as cell-based. Here is the method: To assess if compound 22 inhibits the interaction between YAP/TAZ and TEAD proteins within the cell, compound 22 was administered to NF2-deficient NCI-H226 cells for 24 hours. Subsequently, the endogenous TEAD protein was isolated through immunoprecipitation using a pan-TEAD antibody and examined the immunocomplexes for the presence of YAP/TAZ proteins using anti-YAP/TAZ antibodies (as depicted in FIG. 18).
[…] protein lysate extracted using lysis buffer were incubated with 5 μL pan-TEAD antibody (CST #13295, 33 g/ml) at 4 ° C overnight with rotation, and then incubated with 15 μL Protein G magnetic beads (Fisher #88847) at R.T. for 1 hour with rotation. After binding, beads were washed three times with lysis buffer and one time with ddH2O. IP samples were eluted using 1× gel loading buffer supplied with 20 mM DTT and boiled at 96 ° C for 10 min. […] protein lysate were used for input, and 3% IP flow-thru were used for binding efficiency control. *0 indicated DMSO control. For the detection process, primary antibodies used were: YAP/TAZ rabbit monoclonal antibody (mAb) at a dilution of 1:2000, CST #8418S; Pan-TEAD rabbit mAb at 1:2000, CST #13295S; and 3-actin mouse mAb at 1:8000, Sigma #A5316. Secondary antibodies applied in 1× TBST were: Rabbit IgG-HRP at 1:10000 and Mouse IgG-HRP also at 1:10000.

Assay [4] relates to HepG2 cells. Nature of the assay: Cell cycle analysis by flow cytometry, HepG2. It is filed as cell-based, human. The conditions noted are these: 5 and 10 μM. Here is the method:
To study the potential mechanistic pathways responsible for cell proliferation inhibition by compound 22, the change of cell cycle in Huh7 and HepG2 liver cancer cell lines was evaluated. DNA-based cell cycle analysis was performed using flow cytometry. […] To explore whether compound 22 also induces G1 phase arrest in HepG2 cells similar to its effects on Huh7 cells, parallel investigations were performed. […] However, the impact of 22 on inducing G1 phase arrest was less pronounced in HepG2 cells compared to Huh7 cells.
For cell cycle analysis, cells were fixed with pre-cold 70% ethanol for 30 minutes. Then the cells were washed with PBS and stained with propidium iodide working solution for 30 minutes in the dark. The stained cells were analyzed by flow cytometry. Cell cycle distribution was analyzed using FlowJo_V10 software. For each experiment, 20000 events per sample were recorded. Percentages of cells in G0/G1, S and G2/M phases were calculated and shown in DNA histograms.

Assay [5] has as its system HepG2 cells. Nature of the assay: Colony formation (clonogenic) assay, HepG2. The assay is classed as cell-based. The following applies: Homo sapiens, 48 h, read-out: Colony formation, rate of inhibition, HepG2. As to the method:
The ability of compound 22 to inhibit the proliferation of liver cancer cell lines Huh7 and HepG2 was further assessed using a clonogenic assay.
Huh7 or HepG2 (500 cells/well) were plated into 6 well plates (500 cells per well) and treated with 0 or 5 μM compound 22. Colonies were grown in the absence of soft agar for 2 weeks in a humidified atmosphere of 5% C02 at 37 ° C Crystal violet blue solution (Sigma) was used to stain the colonies for one hour and fixed in methanol followed by counting under a microscope. Triplicate wells were used for each cell line and three independent experiments were performed.

Assay [6] relates to NCI-H226 cells. Nature of the assay: NCI-H226 cell growth inhibition (CCK-8, 3 days). It is filed as cell-based. The conditions noted are these: Homo sapiens, NCI-H226, 72 h, NF2-deficient mesothelioma, read-out: Antiproliferative IC50, NCI-H226. As to the method: as §1

Consider `O=C(CCl)c1c[nH]c2cc(Cl)c(OCc3cccc(C(F)(F)F)c3)cc12` [Compound 22, 2-chloro-1-(6-chloro-5-((3-(trifluoromethyl)benzyl)oxy)-1H-indol-3-yl)ethan-1-one], for which the IC50 (usually the midpoint of a concentration-inhibition curve) worked out at 2600 nM in assay [1] and 400 nM in assay [6]. Moreover, the “HB tumors, occurrence and size” value in assay [2] (25 mg/kg body weight, twice a week for 9 weeks, IP) was “notable reduction in both the occurrence and size of HB tumors”. Also, in assay [2] (25 mg/kg, Cyclin D1 / Ki67 (FIG. 23B)), the “Number of proliferating cells (IHC)” value is recorded as “decreased number of proliferating cells”. The “Ccnd1, CTGF, Cyr61, Afp, and Gpc3 mRNAs in livers” value in assay [2] (real time qRT-PCR, 25 mg/kg) was “lower levels”. The “CTGF and Cyr61 proteins in livers” value in assay [2] (western blotting, 25 mg/kg) was “decreased CTGF and Cyr61”. The “Co-IP of YAP with pan-TEAD antibody” value in assay [3] (1 μM, 24 hours) was “significantly diminished”. The “Interaction between YAP and TEAD” value in assay [3] ("2.5 M", 24-hour treatment) was “almost entirely inhibited”. Further, the “Accumulation in G1 phase, HepG2” value in assay [4] was “accumulation of HepG2 cells in the G1 phase”. In addition, the inhibition (in general, the relative decrease from the control value, in per cent) at 5 µM in assay [5] is 59.5%.
